Data on 1 molecule can be found in US20220257704A1, “COMBINATION OF CHEMOTHERAPY WITH RECOMBINANT S. ROLFSII LECTIN” (Unichem Laboratories Ltd, priority 2018, published 2022).

SMILES strings stand for the structures. Where two headings read alike, the source gives them in different places.

Assay [1] concerns MDA-MB-231 cell line. The experiment in a line: MTT cytotoxicity assay, 48 h, alone and in combination (IC50 and Combination Index). It counts as cell-based. To be noted: Homo sapiens, read-out: IC50 of Paclitaxel. How it is done:
The cell were kept in contact with the recombinant lectin of SEQ ID NO: 1 and the chemotherapy agent for 48 h and the cytotoxic effect (percentage cytotoxicity) was measured. The cytotoxic effect was determined by well-known colorimetric MTT assay (Mossman, T. 1983 Rapid colorimetric assay for cellular growth and survival: application to proliferation and cytotoxicity assays Journal of Immunological Methods, volume 65, pages 55-63) for assessing cell metabolic activity.
Based on percentage cytotoxicity data, IC50 values were determined using the software GraphPad Prism version 4.01.
Combination Index (CI) values were determined for each drug concentration combination. The CI values were calculated based on the IC50 values using the formula as given in below.
A study was performed to determine the effect of the concentration of the recombinant lectin represented by SEQ ID NO: 1 on the IC50 of Paclitaxel for cytotoxicity in MDA-MB-231 cells. Conversely the effect of the concentration of Paclitaxel on the IC50 of the recombinant lectin represented by SEQ ID NO: 1.
Similarly another study was performed for Carboplatin in combination with the recombinant lectin of SEQ ID NO: 1.
In a further study, MDA-MB-231 cells were treated with Paclitaxel (0.001 nM-10 nM) in combination with SEQ ID NO: 1(2.5 μg/mL-80 μg/mL) for 48 h. Similarly another set of cells were treated with Carboplatin (10 μM-1000 μM) in combination with SEQ ID NO: 1 (2.5 μg/mL-80 μg/mL).

Assay [2] deals with PA-1 cell line. Described as above. The assay is classed as cell-based. The note with it: for IC50: Homo sapiens, read-out: IC50 of Paclitaxel.
Method: In a further study, PA-1 cells were treated with Cisplatin(0.01 μM-5 μM) in combination with SEQ ID NO: 1(1 μg/mL-20 μg/mL) for 48 h. Similarly another set of cells were treated with Paclitaxel (0.01 nM-5 nM) in combination with SEQ ID NO: 1 (1 μg/mL-20 μg/mL).

As to `CC(=O)O[C@H]1C(=O)[C@@]2(C)[C@H]([C@H](OC(=O)c3ccccc3)[C@]3(O)C[C@H](OC(=O)[C@H](O)[C@@H](NC(=O)c4ccccc4)c4ccccc4)C(C)=C1C3(C)C)[C@]1(OC(C)=O)CO[C@@H]1C[C@@H]2O` [Paclitaxel, reference compound], the 50% inhibitory concentration (IC50) in assay [1] (MDA-MB-231, SEQ ID NO: 1 at 0 μg/mL) is 1.64 nM; in assay [1] (MDA-MB-231, SEQ ID NO: 1 at 5 μg/mL), 9.31 nM; in assay [1] (MDA-MB-231, SEQ ID NO: 1 at 10 μg/mL), 0.389 nM; in assay [1] (MDA-MB-231, SEQ ID NO: 1 at 20 μg/mL) it was 0.123 nM; in assay [1] (MDA-MB-231, SEQ ID NO: 1 at […]), 3.98 nM; in assay [2] (PA-1, SEQ ID NO: 1 at 0 μg/mL) it was 4.04 nM. Moreover, the half-inhibitory concentration (IC50) in assay [2] (PA-1, SEQ ID NO: 1 at 1 μg/mL) stood at 3.62 nM; in assay [2] (PA-1, SEQ ID NO: 1 at 5 μg/mL) it was 0.222 nM; in assay [2] (PA-1, SEQ ID NO: 1 at […]), 3.48 nM. Moreover, in assay [2] (Paclitaxel with SEQ ID NO: 1, paired with SEQ ID NO: 1 conc.), the “Conc. of other therapeutic agents showing synergistic effect” value was in the range of 0.25 to 5 nM.
